From US11001557B2 (priority 2017, dated 2021)
Read-outs that look alike come from different tables or passages of the source.

Tests used:
Vero cells = conditions: African green monkey
SFTSV [1] = assay: microbe, parasite or virus in culture; type: cell-based, severe fever with thrombocytopenia syndrome virus (SFTSV); conditions: for EC50: Severe fever with thrombocytopenia syndrome virus, Vero, 72 h
in vitro = conditions: African green monkey
SFTSV [2] = conditions: cited from earlier work
[3] = read-out: EC50: 50% effective concentration (concentration of a drug suppressing SFTSV proliferation by 50%)

Row | Compound | CC50 (Vero cells) [µM] | EC50 (SFTSV [1]; [3]) [µM] | CC50 (in vitro) [µM] | also measured
1 | CCN(CC)Cc1cc(Nc2ccnc3cc(Cl)ccc23)ccc1O [Compound 1, Amodiaquine, reference compound] | > 100 | 19.1 ± 5.1 | – | anti-SFTSV effect (in words) (SFTSV [1]): have an anti-SFTSV effect
2 | CCN(CC)Cc1cc(Nc2ccnc3cc(F)ccc23)ccc1O [Compound 2, 4-(7-fluoroquinolin-4-ylamino)-2-diethylaminomethylphenol] | > 100 | 36.6 ± 9.3 | – | –
3 | CCN(CC)Cc1cc(Nc2ccnc3cc(Br)ccc23)ccc1O [Compound 3, 4-(7-bromoquinolin-4-ylamino)-2-diethylaminomethylphenol] | > 100 | 31.1 ± 16.8 | – | melting point: 194.3 to 195.8 °C
4 | CCN(CC)Cc1cc(Nc2ccnc3cc(I)ccc23)ccc1O [Compound 4, 4-(7-iodoquinolin-4-ylamino)-2-diethylaminomethylphenol] | > 100 | 15.6 ± 4.9 | – | melting point: 189.7 to 190.4 °C
5 | Oc1ccc(Nc2ccnc3cc(Cl)ccc23)cc1CN1CCCC1 [Compound 5, 4-(7-chloroquinolin-4-ylamino)-2-(1-pyrrolidinylmethyl)phenol] | – | 14.6 | 41.1 | –
6 | CCCN(CCC)Cc1cc(Nc2ccnc3cc(Cl)ccc23)ccc1O [Compound 6, 4-(7-chloroquinolin-4-ylamino)-2-dipropylaminomethylphenol] | – | 58.7 | > 100 | melting point: 163.2 to 164.3 °C
7 | CCCCN(C)Cc1cc(Nc2ccnc3cc(I)ccc23)ccc1O [Compound 12, 4-(7-iodoquinolin-4-ylamino)-2-butylmethylaminomethylphenol] | – | – | > 50 | EC50 (SFTSV [1]): 6.2 µM
8 | CCCCCN(C)Cc1cc(Nc2ccnc3cc(I)ccc23)ccc1O [Compound 13, 4-(7-iodoquinolin-4-ylamino)-2-methylpentylaminomethylphenol] | – | – | > 50 | EC50 (SFTSV [1]): 3.4 µM
9 | CCCCCCN(C)Cc1cc(Nc2ccnc3cc(I)ccc23)ccc1O [Compound 14, 4-(7-iodoquinolin-4-ylamino)-2-hexylmethylaminomethylphenol] | – | – | > 50 | EC50 (SFTSV [1]): 8.7 µM
10 | NC(=O)c1nc(F)c[nH]c1=O [favipiravir, reference compound] | – | – | – | anti-SFTSV effect already reported (SFTSV [2]): already reported to have an anti-SFTSV effect; anti-SFTSV effect (in words) (SFTSV [1]): have an anti-SFTSV effect
11 | NC(=O)c1ncn([C@@H]2O[C@H](CO)[C@@H](O)[C@H]2O)n1 [ribavirin, reference compound] | – | – | – | anti-SFTSV effect already reported (SFTSV [2]): already reported to have an anti-SFTSV effect; anti-SFTSV effect (in words) (SFTSV [1]): have an anti-SFTSV effect
